*1 amine or outer side, *2 acyl side, *3 side chain or, on linkers, in order; H or OH if unused. Where a SMILES comes first, the peptide text is derived from it. Bridges are numbered along the chain shown (N, C = ends). [ ]: non-standard residue; d: D form. The star is where a group is joined. hPhe(3,5-F2-4-CF3) = N[C@@H](CCc1cc(F)c(C(F)(F)F)c(F)c1)C(=O)O; hPhe(3-Cl-4-CF3) = N[C@@H](CCc1ccc(C(F)(F)F)c(Cl)c1)C(=O)O; NPrPhe(4-CF3) = CCCN[C@@H](Cc1ccc(C(F)(F)F)cc1)C(=O)O; X1 = CCCCN([C@@H](Cc1ccc(C)cc1)C(=O)[*:2])[*:1]; NMeGly(cPent) = CN[C@H](C(=O)O)C1CCCC1; Pro(4,4-F2) = O=C(O)[C@@H]1CC(F)(F)CN1; Ac4c(3,3-F2) = NC1(C(=O)O)CC(F)(F)C1; Hyp = O=C(O)[C@@H]1C[C@@H](O)CN1; NMeD = CN[C@@H](CC(=O)O)C(=O)O; NMeL = CN[C@@H](CC(C)C)C(=O)O; Morpholide = C1CN(*)CCO1; NMeA = CN[C@@H](C)C(=O)O; Ac5c = NC1(C(=O)O)CCCC1; Aze = O=C(O)[C@@H]1CCN1; Ac4c = NC1(C(=O)O)CCC1; Sar = CNCC(=O)O
Legend:
[1] = target: GDP-bound NRAS wild-type protein (Homo sapiens, UniProt P01111); test: Binding to NRAS by surface plasmon resonance (SPR), KD and KD ratio to KRAS
How it was run: (§1)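 Single-cycle kinetics on GDP-loaded biotin-Avi RAS captured to ~100–300 RU; 75 s ascending injections, 100 µL/min, 30°C. HBS pH 7.4 + 10 mM MgCl2/10 µM GDP/4% DMSO. 1:1 fit, KD.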

[2] = tested on: human lung cancer strain NCI-H441; assay type: cell-based
How it was run: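 Proliferation was scored by […] measured after the reagent was added to cultures kept at 37°C in 5% carbon dioxide.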

[3] = target: HRAS wild-type protein (Homo sapiens, UniProt P01112); test: Binding to HRAS by surface plasmon resonance (SPR), KD and KD ratio to KRAS
How it was run: as §1

[4] = ratio of KD for GDP-bound NRAS wild-type protein to KD for KRAS
[5] = ratio of KD for HRAS wild-type protein to KD for KRAS
[6] = ratio of the KD value with respect to GDP-bound NRAS wild-type protein to the KD value with respect to KRAS
[7] = ratio of the KD value with respect to HRAS wild-type protein to the KD value with respect to KRAS

Chain of GDP-bound NRAS wild-type protein (P01111 whole entry): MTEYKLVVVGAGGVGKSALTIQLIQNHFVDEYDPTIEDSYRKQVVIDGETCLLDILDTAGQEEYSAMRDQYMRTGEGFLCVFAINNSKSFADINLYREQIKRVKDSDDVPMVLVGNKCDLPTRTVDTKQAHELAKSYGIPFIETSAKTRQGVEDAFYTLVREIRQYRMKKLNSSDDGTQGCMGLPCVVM
Chain of HRAS wild-type protein (P01112 whole entry): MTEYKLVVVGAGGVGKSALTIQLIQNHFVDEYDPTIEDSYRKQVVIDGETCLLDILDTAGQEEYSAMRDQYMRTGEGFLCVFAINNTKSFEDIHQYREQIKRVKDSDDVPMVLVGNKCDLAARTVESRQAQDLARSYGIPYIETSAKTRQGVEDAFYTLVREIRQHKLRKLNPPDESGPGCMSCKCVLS

CCCCN1C(=O)CN(C)C(=O)CN(C)C(=O)[C@H]([C@@H](C)CC)NC(=O)[C@H](CC(C)C)N(C)C(=O)C[C@@H](C(=O)N2CCOCC2)N(C)C(=O)[C@H](C2CCCC2)N(C)C(=O)C2(CCCC2)NC(=O)[C@@H]2CCCN2C(=O)[C@H](CCc2ccc(C(F)(F)F)c(Cl)c2)NC(=O)CN(C)C(=O)[C@@H]1Cc1ccc(C)cc1 [PP0062] ([NMeL]I[Sar][Sar][X1][Sar][hPhe(3-Cl-4-CF3)]P[Ac5c][NMeGly(cPent)][NMeD]-Morpholide; lactam N-11)
NRAS /KRAS [1, 4]: C (A compound having a KD ratio of 0.1 or more and less than 3 is denoted as C) | IC50 [2]: 3.8 nM | HRAS /KRAS [3, 5]: C (A compound having a KD ratio of 0.1 or more and less than 3 is denoted as C)

CCCN1C(=O)[C@@H]2CCN2C(=O)CN(C)C(=O)[C@H]([C@@H](C)CC)NC(=O)[C@H](CC(C)C)N(C)C(=O)C[C@@H](C(=O)N2CCOCC2)NC(=O)[C@H](C2CCCC2)N(C)C(=O)C2(CCC2)NC(=O)[C@@H]2CC(F)(F)CN2C(=O)[C@H](CCc2ccc(C(F)(F)F)c(Cl)c2)NC(=O)CN(C)C(=O)[C@@H]1Cc1ccc(C(F)(F)F)cc1 [PP0352] ([NMeL]I[Sar][Aze][NPrPhe(4-CF3)][Sar][hPhe(3-Cl-4-CF3)][Pro(4,4-F2)][Ac4c][NMeGly(cPent)]D-Morpholide; lactam N-11)
NRAS /KRAS [1, 4]: C (A compound having a KD ratio of 0.1 or more and less than 3 is denoted as C) | IC50 [2]: 72.4 nM | HRAS /KRAS [3, 5]: B (a compound having 3 or more and less than 10 is denoted as B)

CCCN1C(=O)[C@@H]2CCN2C(=O)CN(C)C(=O)[C@H]([C@@H](C)CC)NC(=O)[C@H](CC(C)C)N(C)C(=O)C[C@@H](C(=O)N2CCOCC2)N(C)C(=O)[C@H](C2CCCC2)N(C)C(=O)C2(CC(F)(F)C2)NC(=O)[C@@H]2CCCN2C(=O)[C@H](CCc2cc(F)c(C(F)(F)F)c(F)c2)NC(=O)CN(C)C(=O)[C@@H]1Cc1ccc(C(F)(F)F)cc1 [PP0802] ([NMeL]I[Sar][Aze][NPrPhe(4-CF3)][Sar][hPhe(3,5-F2-4-CF3)]P[Ac4c(3,3-F2)][NMeGly(cPent)][NMeD]-Morpholide; lactam N-11)
NRAS /KRAS [1, 4]: C (A compound having a KD ratio of 0.1 or more and less than 3 is denoted as C) | IC50 [2]: 6.5 nM | HRAS /KRAS [3, 5]: B (a compound having 3 or more and less than 10 is denoted as B)

CCO[C@@H]1C[C@H]2C(=O)NC3(CCC3)C(=O)N(C)[C@@H](C3CCCC3)C(=O)N(C)[C@H](C(=O)N(C)C)CC(=O)N(C)[C@@H](CC(C)(C)C)C(=O)N[C@@H]([C@@H](C)CC)C(=O)N(C)CC(=O)N(C)[C@H]3CCCCN(C3=O)[C@@H](Cc3ccc(C(F)(F)F)cc3)C(=O)N(C)CC(=O)N[C@@H](CCc3cc(F)c(C(F)(F)F)c(F)c3)C(=O)N2C1 [PP0699]
NRAS /KRAS [1, 6]: C (A compound having a KD ratio of 0.1 or more and less than 3 is denoted as C) | IC50 [2]: 2.9 nM | HRAS /KRAS [3, 7]: C (A compound having a KD ratio of 0.1 or more and less than 3 is denoted as C)

CCCN1C(=O)CN(C)C(=O)CNC(=O)[C@H]([C@@H](C)CC)NC(=O)[C@H](CC(C)C)N(C)C(=O)C[C@@H](C(=O)N(C)C)N(C)C(=O)[C@H](C2CCCC2)N(C)C(=O)C2(CCC2)NC(=O)[C@@H]2CCCN2C(=O)[C@H](CCc2ccc(C(F)(F)F)c(Cl)c2)NC(=O)CN(C)C(=O)[C@@H]1Cc1ccc(C(F)(F)F)cc1 [PP0418] ([NMeL]IG[Sar][NPrPhe(4-CF3)][Sar][hPhe(3-Cl-4-CF3)]P[Ac4c][NMeGly(cPent)][NMeD]-NMe2; lactam N-11)
NRAS /KRAS [1, 6]: B (a compound having 3 or more and less than 10 is denoted as B) | IC50 [2]: 4.6 nM | HRAS /KRAS [3, 7]: C (A compound having a KD ratio of 0.1 or more and less than 3 is denoted as C)

CCCN1C(=O)[C@@H]2CCN2C(=O)[C@H](C)N(C)C(=O)[C@H]([C@@H](C)CC)NC(=O)[C@H](CC(C)C)N(C)C(=O)C[C@@H](C(=O)N(C)C)N(C)C(=O)[C@H](C2CCCC2)N(C)C(=O)C2(CCCC2)NC(=O)[C@@H]2C[C@@H](OCC)CN2C(=O)[C@H](CCc2ccc(C(F)(F)F)c(Cl)c2)NC(=O)CN(C)C(=O)[C@@H]1Cc1ccc(C(F)(F)F)cc1 [PP0438] ([NMeL]I[NMeA][Aze][NPrPhe(4-CF3)][Sar][hPhe(3-Cl-4-CF3)][Hyp](Et)[Ac5c][NMeGly(cPent)][NMeD]-NMe2; lactam N-11)
NRAS /KRAS [1, 6]: C (A compound having a KD ratio of 0.1 or more and less than 3 is denoted as C) | IC50 [2]: 1 nM | HRAS /KRAS [3, 7]: C (A compound having a KD ratio of 0.1 or more and less than 3 is denoted as C)

CCC[C@H]1C(=O)N[C@@H]([C@@H](C)CC)C(=O)N(C)CC(=O)N(C)[C@H]2C/C=C\CCN(C2=O)[C@@H](CC2CCCCC2)C(=O)N(C)CC(=O)N[C@@H](CCc2ccc(C(F)(F)F)c(OC)c2)C(=O)N2C[C@H](OCC)C[C@H]2C(=O)N(C)C2(CCC2)C(=O)N(C)[C@@H](C2CCCC2)C(=O)N(C)[C@H](C(=O)N(C)C)CC(=O)N1C [PP2336]
NRAS /KRAS [1, 6]: A (a compound having 10 or more and less than 20 is denoted as A) | IC50 [2]: 16.3 nM | HRAS /KRAS [3, 7]: A (a compound having 10 or more and less than 20 is denoted as A)

Source: patent EP4603105A1, “PHARMACEUTICAL COMPOSITION CONTAINING CYCLIC COMPOUND HAVING SELECTIVE KRAS INHIBITORY EFFECT AGAINST HRAS AND NRAS” (CHUGAI SEIYAKU KABUSHIKI KAISHA, priority 2022, dated 2024)
